Measurements as given in patent US20240360107A1, “AN EIF4A INHIBITOR WITH A NOVEL MECHANISM OF ACTION” (ARIZONA BOARD OF REGENTS ON BEHALF OF THE UNIVERSITY OF …, priority 2021, published 2024).
Entries after “also recorded” stand apart in the source; their conditions may differ.

How the values were obtained:
eIF4A [1] = molecular target: T1, eIF4A (Homo sapiens, UniProt P60842); assay: MANT-ATP fluorescence polarization assay; assay type: binding; parameters: 6xHis with TEV protease site (N, cleaved yes); made in house; host or cells: E. coli BL21-CodonPlus; details: compound 200 μM or ADP 1 mM; MANT-ATP 100 nM
Experimental: Additional biochemical testing was performed on compound 28 to investigate its mechanism of eIF4A inhibition. Initially, kinetics experiments were repeated with compound 28, and the results for compound 28 matched those of compound 1 (FIG. 5D, 4A). Upon addition of compound 28, Km and Vmax of eIF4A decreased with respect to ATP. With respect to RNA, eIF4A Km […] and Vmax remained constant. […] Fluorescence polarization (FP) assays were utilized to confirm this mechanism of inhibition by testing the ability of compound 28 to compete fluorescent substrates off eIF4A. First, an FP assay was performed with MANT-ATP, a fluorescent, non-hydrolysable ATP analog, as the substrate.
MANT-ATP fluorescence polarization assay. Recombinant eIF4A (15 μM) was added to a low-volume black 384 well plate (Greiner). Yeast RNA (0.25 mg/mL) was added along with compound (200 μM) or ADP (1 mM) and the plate was incubated for 20 min. MANT-ATP was added (100 nM) and the plate was incubated for 30 min before fluorescence polarization was read at 355 nm:448 nm (Ex:Em) on a SpectraMax iD5 plate reader (Molecular Devices).
Target sequence in this assay (P60842 whole entry): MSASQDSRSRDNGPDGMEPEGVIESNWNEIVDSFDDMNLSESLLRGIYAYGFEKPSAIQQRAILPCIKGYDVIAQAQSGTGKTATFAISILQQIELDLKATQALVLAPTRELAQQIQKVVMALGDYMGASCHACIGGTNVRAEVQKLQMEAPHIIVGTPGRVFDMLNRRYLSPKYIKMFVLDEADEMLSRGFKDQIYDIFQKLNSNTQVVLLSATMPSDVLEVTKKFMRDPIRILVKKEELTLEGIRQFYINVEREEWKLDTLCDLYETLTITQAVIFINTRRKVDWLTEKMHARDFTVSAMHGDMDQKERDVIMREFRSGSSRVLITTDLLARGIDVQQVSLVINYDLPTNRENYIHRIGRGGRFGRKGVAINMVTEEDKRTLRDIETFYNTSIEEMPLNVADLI

eIF4A [2] = molecular target: T1, eIF4A; assay: RNA-stimulated malachite green ATPase assay; assay type: biochemical; parameters: 6xHis with TEV protease site (N, cleaved yes); made in house; host or cells: E. coli BL21-CodonPlus; details: for potency in the eIF4A ATPase assay (in words): comparison within the series
Experimental: Human eIF4A protein was produced recombinantly and a greater than 100,000-compound screen for inhibitors was completed using a malachite green ATPase assay (FIG. 11A). […] A stable mixture of yeast RNAs was added in an effort to improve this system and create a more biologically relevant eIF4A assay. eIF4A ATPase activity was accelerated without a statistically significant increase in the background signal in the presence of this RNA (FIG. 11B), and the new conditions gave excellent statistical parameters in a 384-well plate format (FIG. 11C).
ATPase assay. Recombinant WT or mutant eIF4A was added to a clear bottom 384 well plate (Greiner) in ATPase buffer (20 mM Tris pH 7.4, 80 mM KCl, 2.5 mM MgCl2, 1 mM DTT, 1% glycerol). Compounds were added and the plate was incubated at 37° C. for 20 min. ATP/RNA solution was added to afford a 20 μL per well reaction volume with 750 nM eIF4A, 250 μM ATP, and 0.25 mg/mL Yeast RNA (Sigma) for the initial screen and dose responses, and varying concentrations of ATP and RNA for the kinetic assays. The plate was incubated for 4 h at 37° C. for the initial screen and dose responses, and at seven time points (1 hour-7 hours) for kinetic assays. 0.04% v/v (final concentration) Tween-20 was added to a Malachite Green solution, and the Malachite Green (40 μL per well) was added. The solution was incubated for 5 minutes at room temperature and Absorbance at 660 nm was read on a SpectraMax iD5 plate reader (Molecular Devices).
Target sequence in this assay (P60842 whole entry): as above

[3] = tested on: BJAB Burkitt lymphoma cells; assay: CellTiter-Glo Luminescent Cell Viability assay; assay type: cell-based; details: 72 h; for effect on BJAB cell viability: top concentration 10 uM
Experimental: Compounds 1 and compound 28 were evaluated in a CellTiter-Glo (CTG) Luminescence cell viability assay in BJAB Burkitt lymphoma cells that are known to be sensitive to eIF4A inhibition. This assay quantitates the number of living, metabolically active cells by measuring their ATP levels.
Cell viability assay. BJAB lymphoma cells were plated in quadruplicate at 5,000 cells/well in serial dilutions of drug ranging two logs with the top concentration of compounds tested at 10 uM. Viability was measured after 72 h using Cell Titer Glo (Promega G7573) following the manufacturer's protocol. Luminescence was detected on the BioTek HT Synergy plate reader and values were normalized to vehicle-treated (DMSO) wells. Silvestrol was included as a positive control (not shown).

[4] = tested on: HCV IRES-dependent translation of Renilla luciferase; assay: in vitro translation of bicistronic luciferase reporter in rabbit reticulocyte lysate, Renilla luciferase; assay type: biochemical; details: Cycloheximide 600 μM, Silvestrol 100 nM
Excerpt: (§1) A bicistronic luciferase reporter ([…]) (FIG. 7B, top) was programmed into rabbit reticulocyte lysates, cellular extracts capable of performing both cap-dependent and Hepatitis C virus (HCV) internal ribosomal entry site (IRES)-mediated translation. eIF4A is the enzymatic driver of cap-dependent translation and is not involved in translation through HCV IRES. Compounds that inhibit eIF4A should inhibit cap-dependent translation of firefly (FF) luciferase while leaving IRES-mediated translation of Renilla (Ren) luciferase relatively unaffected. The inhibitory activities of cycloheximide, silvestrol, and 28 were assessed in this in vitro translation assay (FIG. 7B, bottom). […] The ability of compound 28 to preferentially target cap-dependent translation in a similar manner as silvestrol provides promising evidence that 28 inhibits eIF4A and not other proteins in the general translational machinery.
(§2) The dual-luciferase reporter plasmid pSP/(CAG)33/FF/HCV/Ren-pA51 was linearized with BamHI and subsequently in vitro transcribed using the Promega mMessage mMachine SP6 transcription kit, according to manufacturer's specifications. RNA was precipitated with LiCI and resuspended in H2O for use in in vitro translation experiments. Rabbit reticulocyte lysate (RRL) (nuclease-treated, Promega) was used to assess inhibitory effects of 28 on translation of the dual-reporter. Briefly, a reaction consisting of 50% RRL, 30 ng/μL reporter RNA, 10 μM Amino Acid Mixture Minus Methionine, 10 μM Amino Acid Mixture Minus Leucine, […], 1 U/μL RNAseOut (Thermo), and drug (final DMSO concentration 1%) were incubated at 30° C. for 90 minutes. The reaction was quenched with 50 μL 1× Passive Lysis Buffer (Promega), 10 μL of the mix was transferred to a 96-well white plate (Cellstar), and the Dual-Reporter Luciferase Assay System (Promega) was used to generate luminescence according to the manufacturer's instructions. Luminescence was detected using a plate reader (BioTek HT Synergy).

[5] = tested on: cap-dependent translation of firefly luciferase; assay: in vitro translation of bicistronic luciferase reporter in rabbit reticulocyte lysate, firefly luciferase; assay type: biochemical; details: Cycloheximide 600 μM, Silvestrol 100 nM
Excerpt: as §1, §2

eIF4A [6] = molecular target: T1, eIF4A; assay: Cellular Thermal Shift Assay (CETSA) in A549 cells; assay type: cell-based; parameters: endogenous in cells; host or cells: A549 cells; details: 90 min, 55° C., silvestrol 100 nM
Experimental: In CETSA, thermal stability of a protein is assessed by heating cells and then separating insoluble, aggregated, or denatured proteins from soluble proteins through supernatant/pellet fractionation. Levels of the protein of interest (eIF4A) remaining in the soluble fraction are then measured by western blot. The principle of CETSA is similar to differential scanning fluorimetry (DSF), in that thermal stability and solubility of a protein increases upon binding a ligand.
Cellular Thermal Shift Assay (CETSA). A549 cells were seeded into wells in 6-well plates and on the following day were exposed to 28 or silvestrol (100 nM) for 90 min. Cells were harvested, resuspended in 50 μL DMEM, and dispensed into thin-walled PCR tubes. Cells were subjected to 3 min of heat at 55° C. in a thermocycler (miniPCR). After heating, cells were left to cool for 3 min and then snap-frozen on dry ice. Cells were subjected to 3 rapid freeze thaws with 15 seconds of vortexing after each thaw. After the first thaw, 1 μL of a dissolved Pierce protease inhibitor tablet (ThermoFisher—A32963) was added to the cell lysate. Cell lysates were centrifuged at 20,000×g for 20 min. […] All immunoblot images were taken using the Azure 600 imaging system (Azure Biosystems) and analyzed using ImageJ 1.51s (NIH). […]
Target sequence in this assay (P60842 2-406): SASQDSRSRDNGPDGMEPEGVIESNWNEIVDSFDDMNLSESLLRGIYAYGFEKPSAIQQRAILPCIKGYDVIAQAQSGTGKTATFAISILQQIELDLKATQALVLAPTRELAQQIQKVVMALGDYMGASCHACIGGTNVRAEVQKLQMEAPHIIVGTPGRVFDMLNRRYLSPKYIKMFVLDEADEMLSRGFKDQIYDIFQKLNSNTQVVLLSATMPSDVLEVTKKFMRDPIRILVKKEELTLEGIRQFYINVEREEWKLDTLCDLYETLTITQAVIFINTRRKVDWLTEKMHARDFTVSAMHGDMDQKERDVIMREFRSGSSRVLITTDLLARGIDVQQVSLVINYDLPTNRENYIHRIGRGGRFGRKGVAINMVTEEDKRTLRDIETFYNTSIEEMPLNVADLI

Structure (SMILES)	potency in the eIF4A ATPase assay (in words) (eIF4A [2])	effect on BJAB cell viability [3]	other results
Nc1ncnc2c1ncn2[C@@H]1O[C@H](COP(=O)(O)OP(=O)(O)O)[C@@H](O)[C@H]1O [ADP, reference compound]	–	–	competition of MANT-ATP off eIF4A (eIF4A [1]): able to compete MANT-ATP out of its binding pocket
CCCCc1ccc(-c2ccc(-c3cc(C(=O)O)c4ccc(Cl)cc4n3)o2)cc1 [Compound 9, 2-(5-(4-butylphenyl)furan-2-yl)-7-chloroquinoline-4-carboxylic acid]	moderate potency; also recorded: performing the best in the ATPase assay of any inhibitor produced	–	IC50 (eIF4A [2]; 750 nM eIF4A, 250 μM ATP, 0.25 mg/mL Yeast RNA, 4 h at 37° C.): 21.7 ± 3.39 µM; EC50 ([3]; Homo sapiens, CellTiter-Glo, n=4): 4.29 ± 0.23 µM
CCCCc1ccc(-c2ccc(-c3cc(C(=O)O)c4cc(N)ccc4n3)o2)cc1 [Compound 24, 6-amino-2-(5-(4-butylphenyl)furan-2-yl)quinoline-4-carboxylic acid]	lose potency in the ATPase assay; also recorded: major losses in potency	do not decrease BJAB cellular viability	–
CCCCc1ccc(-c2ccc(-c3cc(C(=O)O)c4cc(NC(C)=O)ccc4n3)o2)cc1 [Compound 25, 6-acetamido-2-(5-(4-butylphenyl)furan-2-yl)quinoline-4-carboxylic acid]	lose potency in the ATPase assay; also recorded: major losses in potency	do not decrease BJAB cellular viability	–
CCCCc1ccc(-c2ccc(-c3cc(C(=O)OCC)c4cc([N+](=O)[O-])ccc4n3)o2)cc1 [Compound 29, ethyl 2-(5-(4-butylphenyl)furan-2-yl)-6-nitroquinoline-4-carboxylate]	not potent in the ATPase assay; also recorded: lost all eIF4A potency	did not inhibit cellular viability	–
Nc1ccc(-c2ccc(-c3cc(C(=O)O)c4cc([N+](=O)[O-])ccc4n3)o2)cc1 [Compound 46, 2-(5-(4-aminophenyl)furan-2-yl)-6-nitroquinoline-4-carboxylic acid]	low potency; also recorded: lose potency in the ATPase assay	do not inhibit BJAB cell viability	–
Nc1cccc(-c2ccc(-c3cc(C(=O)O)c4cc([N+](=O)[O-])ccc4n3)o2)c1 [Compound 47, 2-(5-(3-aminophenyl)furan-2-yl)-6-nitroquinoline-4-carboxylic acid]	low potency; also recorded: lose potency in the ATPase assay	do not inhibit BJAB cell viability	–
C[C@@H]1C[C@@H]([C@H](O)CC2CC(=O)NC(=O)C2)C(=O)[C@@H](C)C1 [Cycloheximide, reference compound]	–	–	effect on HCV IRES-mediated translation (Renilla luciferase) [4]: inhibits both cap-dependent and IRES-mediated translation; effect on cap-dependent translation (firefly luciferase) [5]: inhibits both cap-dependent and IRES-mediated translation
COC(=O)[C@H]1[C@@H](O)[C@@]2(O)c3c(OC)cc(O[C@@H]4O[C@@H]([C@H](O)CO)CO[C@H]4OC)cc3O[C@@]2(c2ccc(OC)cc2)[C@@H]1c1ccccc1 [silvestrol, reference compound]	–	–	thermal stability of eIF4A in cells (CETSA) (eIF4A [6]): increased thermal stability of eIF4A; effect on HCV IRES-mediated translation (Renilla luciferase) [4]: only show a modest effect on HCV IRES-dependent translation of Renilla luciferase; effect on cap-dependent translation (firefly luciferase) [5]: inhibit cap-dependent translation of firefly luciferase
